Results taken from patent publication US20230346777A1, “USE OF SGC ACTIVATORS FOR THE TREATMENT OF OPHTHALMOLOGIC DISEASES” (Bayer Aktiengesellschaft, priority 2020, published 2023).
Where a name gives a salt, the structure may show the parent alone.

Key:
[1] = Pharmacokinetic parameters following intravenous and oral administration in rats; format: in vivo, male Wistar rats; details: for clearance: read-out: CLplasma (converted); for half-life: read-out: t½ (converted)
Procedure: (§1) B-2. Determination of Pharmacokinetic Parameters Following Intravenous and Oral Administration
(§2) The pharmacokinetic parameters of the compounds according to the invention were determined in male Wistar rats and/or in female beagles and/or in cynomolgus monkeys and/or in male CD-1 mice. Intravenous administration in the case of mice and rats was carried out by means of a species-specific plasma/DMSO formulation, and in the case of dogs and monkeys by means of a water/PEG400/ethanol formulation. In all species, oral administration of the dissolved substance was performed via gavage, based on a water/PEG400/ethanol formulation.
(§3) An internal standard (which may also be a chemically unrelated substance) was added to the samples of the compounds of the invention, calibration samples and qualifiers, and there followed protein precipitation by means of acetonitrile in excess. Addition of a buffer solution matched to the LC conditions, and subsequent vortexing, was followed by centrifugation at 1000 g. The supernatant was analysed by LC-MS/MS using C18 reversed-phase columns and variable mobile phase mixtures. The substances were quantified via the peak heights or areas from extracted ion chromatograms of specific selected ion monitoring experiments.
(§4) The plasma concentration/time plots determined were used to calculate the pharmacokinetic parameters such as AUC, Cmax, t1/2 (terminal half-life), F (bioavailability), MRT (mean residence time) and CL (clearance), by means of a validated pharmacokinetic calculation program.
(§5) Since the substance quantification was performed in plasma, it was necessary to determine the blood/plasma distribution of the substance in order to be able to adjust the pharmacokinetic parameters correspondingly.
(§6) For this purpose, a defined amount of substance was incubated in K3 EDTA whole blood of the species in question in a rocking roller mixer for 20 min. After centrifugation at 1000 g, the plasma concentration was measured (by means of LC-MS/MS; see above) and determined by calculating the ratio of the Cblood/Cplasma value.

[2] = molecular target: T1, recombinant guanylate cyclase reporter cell line (Rattus norvegicus, UniProt P20595); experiment: Effect on a recombinant guanylate cyclase reporter cell line; format: cell-based
T1 construct: expressed in transfected cells; CHO by own knowledge of the cited Wunder et al. 2005
T1 sequence (P20595 1-619): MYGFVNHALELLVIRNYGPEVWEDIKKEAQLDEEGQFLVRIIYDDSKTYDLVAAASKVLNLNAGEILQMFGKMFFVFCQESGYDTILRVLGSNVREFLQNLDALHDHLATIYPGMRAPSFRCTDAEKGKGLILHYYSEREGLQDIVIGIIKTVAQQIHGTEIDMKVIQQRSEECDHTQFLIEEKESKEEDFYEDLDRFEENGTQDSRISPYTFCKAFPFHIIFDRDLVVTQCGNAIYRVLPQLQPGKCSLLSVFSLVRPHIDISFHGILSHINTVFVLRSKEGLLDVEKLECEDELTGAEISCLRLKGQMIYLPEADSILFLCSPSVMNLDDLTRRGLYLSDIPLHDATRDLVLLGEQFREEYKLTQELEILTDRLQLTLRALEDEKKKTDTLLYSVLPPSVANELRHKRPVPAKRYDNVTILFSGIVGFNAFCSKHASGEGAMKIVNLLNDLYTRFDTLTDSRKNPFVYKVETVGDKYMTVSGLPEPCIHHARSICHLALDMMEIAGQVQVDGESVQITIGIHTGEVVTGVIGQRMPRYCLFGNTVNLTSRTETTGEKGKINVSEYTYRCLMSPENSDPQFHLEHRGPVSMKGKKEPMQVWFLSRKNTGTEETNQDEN
T1 sequence (P19686 1-690 partner): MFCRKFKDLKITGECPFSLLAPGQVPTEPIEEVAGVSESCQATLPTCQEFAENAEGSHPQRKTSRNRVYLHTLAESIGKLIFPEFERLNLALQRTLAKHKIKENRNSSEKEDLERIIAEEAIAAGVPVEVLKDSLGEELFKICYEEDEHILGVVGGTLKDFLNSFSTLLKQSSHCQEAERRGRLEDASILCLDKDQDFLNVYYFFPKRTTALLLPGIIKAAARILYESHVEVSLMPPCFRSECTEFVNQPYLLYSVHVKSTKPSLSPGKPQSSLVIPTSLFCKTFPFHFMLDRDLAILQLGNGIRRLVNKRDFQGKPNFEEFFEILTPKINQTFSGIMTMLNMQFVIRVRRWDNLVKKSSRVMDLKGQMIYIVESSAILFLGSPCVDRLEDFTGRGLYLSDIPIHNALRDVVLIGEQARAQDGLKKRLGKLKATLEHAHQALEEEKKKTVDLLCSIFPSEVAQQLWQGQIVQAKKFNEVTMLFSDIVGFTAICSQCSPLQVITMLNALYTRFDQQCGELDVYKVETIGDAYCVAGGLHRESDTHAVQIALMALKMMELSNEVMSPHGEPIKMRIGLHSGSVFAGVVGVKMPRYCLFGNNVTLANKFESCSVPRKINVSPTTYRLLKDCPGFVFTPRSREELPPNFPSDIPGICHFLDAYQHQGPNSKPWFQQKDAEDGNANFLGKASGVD
Procedure: B-1. Effect on a Recombinant Guanylate Cyclase Reporter Cell Line
The cellular activity of the compounds according to the invention was determined using a recombinant guanylate cyclase reporter cell line, as described in F. Wunder et al., Anal. Biochem. 339, 104-112 (2005).

[3] = Pharmacokinetic parameters following intravenous and oral administration in dogs; format: in vivo, female beagles; details: for half-life: read-out: t½ (converted)
Procedure: as §1, §2, §3, §4, §5, §6

[4] = male, Wistar, rat, plasma, iv, intravenous administration
[5] = male, Wistar, rat, plasma, iv, intravenous administration, read-out: MRT
[6] = male, Wistar, rat, plasma, po, oral administration (p.o.), read-out: MRT
[7] = male, Wistar, rat, plasma, po, oral administration (p.o.)
[8] = female, beagle, dog, plasma, intravenous administration (i.v.)
[9] = female, beagle, dog, plasma, oral administration (p.o.)

| SMILES | AUCnorm ([1]; intravenous administration) | clearance [1, 4] | MRT [1, 5] | half-life [1, 4] | MRT [1, 6] | half-life [1, 7] | AUCnorm ([1]; oral administration (p.o.)) | F ([1]; oral administration (p.o.)) | EC50 [2] | MEC (minimum effective concentration) [2] | also measured |
| --- | --- | --- | --- | --- | --- | --- | --- | --- | --- | --- | --- |
| CC(C)CN1CCN(c2ccc(-c3ccc(Cl)cc3N3CCCC(n4ncc(C(=O)O)c4C(F)F)C3)cc2)CC1 (single isomer, unassigned) [Example 1, 1-[1-{4-Chloro-4′-[4-(2-methylpropyl)piperazin-1-yl][1,1′-biphenyl]-2-yl}piperidin-3-yl]-5-(difluoromethyl)-1H-pyrazole-4-carboxylic acid hydrochloride] | 1.77 kg·h/L | 9.33 mL/min/kg | 2.24 h | 98.4 min | 6.28 h | 194 min | 0.57 kg·h/L | 31.4% | 9.2 nM | 2.3 nM |  |
| CCCN1CCN(c2ccc(-c3ccc(Cl)cc3N3CCCC(n4ncc(C(=O)O)c4C(F)F)C3)cc2)CC1 (single isomer, unassigned) [Example 4, 1-{1-[4-Chloro-4′-(4-propylpiperazin-1-yl)[biphenyl]-2-yl]piperidin-3-yl}-5-(difluoromethyl)-1H-pyrazole-4-carboxylic acid hydrochloride] | 1.40 kg·h/L | 12 mL/min/kg | 2.62 h | 125 min | 5.91 h | 181 min | 0.84 kg·h/L | 59.9% | 3.2 nM | 0.3 nM |  |
| O=C(O)c1cnn(C2CCCN(c3cc(Cl)ccc3-c3ccc(N4CCN(CC5CC5)CC4)cc3)C2)c1C(F)F (single isomer, unassigned) [Example 5, 1-(1-{4-Chloro-4′-[4-(cyclopropylmethyl)piperazin-1-yl][biphenyl]-2-yl}piperidin-3-yl)-5-(difluoromethyl)-1H-pyrazole-4-carboxylic acid hydrochloride] | 1.23 kg·h/L | 13.5 mL/min/kg | 2.88 h | 146 min | 7.53 h | 226 min | 0.70 kg·h/L | 58.2% | 3.6 nM | <0.3 nM |  |
| O=C(O)c1cnn(C2CCCN(c3cc(Cl)ccc3-c3ccc(N4CCN(CC(F)(F)F)CC4)cc3)C2)c1C(F)F (single isomer, unassigned) [Example 6, 1-[1-[5-Chloro-2-[4-[4-(2,2,2-trifluoroethyl)piperazin-1-yl]phenyl]phenyl]-3-piperidyl]-5-(difluoromethyl)pyrazole-4-carboxylic acid] | 2.29 kg·h/L |  |  |  |  |  | 2.11 kg·h/L | 91.7% | 19.3 nM | 1.6 nM | CLplasma ([1]; intravenous administration): 0.44 L/h/kg; MRT ([1]; intravenous administration): 4.16 h; t½ ([1]; intravenous administration): 5.13 h; MRT ([1]; oral administration (p.o.)): 14.2 h; t½ ([1]; oral administration (p.o.)): 7.37 h |
| O=C(O)c1cnn(C2CCCN(c3cc(Cl)ccc3-c3ccc(N4CCN(CC(F)(F)F)CC4)cc3)C2)c1C(F)F (single isomer, unassigned) [Example 7, 1-[1-[5-Chloro-2-[4-[4-(2,2,2-trifluoroethyl)piperazin-1-yl]phenyl]phenyl]-3-piperidyl]-5-(difluoromethyl)pyrazole-4-carboxylic acid] | 7.23 kg·h/L |  | 4.41 h | 230 min | 7.32 h |  | 4.04 kg·h/L | 56.1% | 13.7 nM | 1.6 nM | CLplasma ([1]; intravenous administration): 0.14 L/h/kg; t½ ([1]; oral administration (p.o.)): 3.63 h |
| CC(C)CN1CCN(c2ccc(-c3ccc(Cl)cc3N3CCCC(n4ncc(C(=O)O)c4C(F)(F)F)C3)cc2)CC1 (single isomer, unassigned) [Example 8, 1-[1-{4-Chloro-4′-[4-(2-methylpropyl)piperazin-1-yl][1,1′-biphenyl]-2-yl}piperidin-3-yl]-5-(trifluoromethyl)-1H-pyrazole-4-carboxylic acid] |  |  |  |  |  |  |  |  | 40 nM | 6.5 nM |  |
| O=C(O)c1cnn(C2CCCN(c3cc(Cl)ccc3-c3ccc(N4CCN(CC5CC5)CC4)cc3)C2)c1C(F)(F)F (single isomer, unassigned) [Example 10, 1-[1-[5-Chloro-2-[4-[4-(cyclopropylmethyl)piperazin-1-yl]phenyl]phenyl]-3-piperidyl]-5-(trifluoromethyl)pyrazole-4-carboxylic acid hydrochloride] | 1.37 kg·h/L | 12.2 mL/min/kg | 2.39 h | 113 min | 4.04 h | 205 min | 0.52 kg·h/L | 37.4% | 10.3 nM | 2.0 nM |  |
| O=C(O)c1cnn(C2CCCN(c3cc(Cl)ccc3-c3ccc(N4CCN(CC(F)(F)F)CC4)cc3)C2)c1C(F)(F)F (single isomer, unassigned) [Example 11, 1-[1-[5-Chloro-2-[4-[4-(2,2,2-trifluoroethyl)piperazin-1-yl]phenyl]phenyl]-3-piperidyl]-5-(trifluoromethyl)pyrazole-4-carboxylic acid] |  |  |  |  |  |  |  |  | 5.2 nM | 0.6 nM |  |
| O=C(O)c1cnn(-c2cccc(-c3cc(Cl)ccc3-c3ccc(N4CCN(CC5CC5)CC4)cc3)n2)c1C(F)(F)F [Comparative Example 174 (WO2012/058132), reference compound] | 0.77 kg·h/L | 21.7 mL/min/kg | 2.78 h | 140 min | 8.4 h | 216 min | 0.63 kg·h/L | 81.8% |  |  | MRT [3, 8]: 7.23 h; clearance ([3]; female, beagle, dog, plasma, intravenous administration (i.v.), read-out: CLplasma (converted)): 3.33 mL/min/kg; half-life [3, 8]: 648 min; MRT [3, 9]: 6.1 h; half-life [3, 9]: 423 min; AUCnorm ([3]; intravenous administration (i.v.)): 5.00 kg·h/L; AUCnorm ([3]; oral administration (p.o.)): 2.08 kg·h/L; F ([3]; oral administration (p.o.)): 41.6% |
